# Experimental data taken from patent US9346786B2, “Pyrrolidine compounds” (Hoffmann-La Roche Inc., priority 2009, dated 2016).
# Target: recombinant human NK3 receptor (Homo sapiens (Human), UniProt P29371)
# Assay: biochemical
# Assay type: binding
# Details: [3H]SR142801, membranes of HEK293 cells transiently expressing recombinant human NK3 receptor; read-out: Data Ki (hNK-3 receptor affinity)
# Protocol: [^3H]SR142801 Competition Binding Assay
# hNK3 receptor binding experiment were performed using [^3H]SR142801 (Catalog No. TRK1035, specific activity: 74.0 Ci/mmol, Amersham, GE Healthcare UK limited, Buckinghamshire, UK) and membrane isolated from HEK293 cells transiently expressing recombinant human NK3 receptor. After thawing, the membrane homogenates were centrifuged at 48,000×g for […] at 4° C., the pellets were resuspended in the 50 mM Tris-HCl, 4 mM MnCl2, 1 μM phosphoramidon, 0.1% BSA binding buffer at pH 7.4 to a final assay concentration of 5 μg protein/well. For inhibition experiments, membranes were incubated with [^3H]SR142801 at a concentration equal to KD value of radioligand and 10 concentrations of the inhibitory compound (0.0003-10 μM) (in a total reaction volume of 500 μl) for 75 min at room temperature (RT). At the end of the incubation, membranes were filtered onto unitfilter (96-well white microplate with bonded GF/C filter preincubated 1 h in 0.3% PEI+0.3% BSA, Packard BioScience, Meriden, Conn.) with a Filtermate 196 harvester (Packard BioScience) and washed 4 times with ice-cold 50 mM Tris-HCl, pH 7.4 buffer. Nonspecific binding was measured in the presence of 10 μM SB222200 for both radioligands. The radioactivity on the filter was counted (5 min) on a Packard Top-count microplate scintillation counter with quenching correction after addition of 45 μl of microscint 40 (Canberra Packard S.A., Zürich, Switzerland) and shaking for 1 h. Inhibition curves were fitted according to the Hill equation: y=100/(1+(x/IC50)^nH), where nH=slope factor using Excel-fit 4 software (Microsoft). IC50 values were derived from the inhibition curve and the affinity constant (Ki) values were calculated using the Cheng-Prussoff equation Ki=IC50/(1+[L]/KD) where [L] is the concentration of radioligand and KD is its dissociation constant at the receptor, derived from the saturation isotherm. All experiments were performed in duplicate and the mean±standard error (SEM) of the individual Ki values was calculated.
# recombinant human NK3 receptor, sequence (P29371 whole entry): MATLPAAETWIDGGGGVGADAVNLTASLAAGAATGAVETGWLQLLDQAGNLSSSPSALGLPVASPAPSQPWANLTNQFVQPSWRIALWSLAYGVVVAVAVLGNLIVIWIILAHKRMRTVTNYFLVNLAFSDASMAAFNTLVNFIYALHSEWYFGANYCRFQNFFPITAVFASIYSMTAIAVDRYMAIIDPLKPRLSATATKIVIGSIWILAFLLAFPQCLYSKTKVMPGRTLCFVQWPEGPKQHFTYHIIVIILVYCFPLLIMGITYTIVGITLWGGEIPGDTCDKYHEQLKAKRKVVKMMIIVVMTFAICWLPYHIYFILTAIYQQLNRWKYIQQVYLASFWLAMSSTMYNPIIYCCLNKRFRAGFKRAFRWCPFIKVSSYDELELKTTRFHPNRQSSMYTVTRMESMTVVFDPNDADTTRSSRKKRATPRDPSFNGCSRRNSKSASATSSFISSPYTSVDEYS
row,Structure (SMILES),Ki
1,"CCN(C(=O)Oc1ccc(F)cc1)[C@@H]1CN(C(=O)C2CCN(c3ccc(S(C)(=O)=O)cn3)CC2)C[C@H]1c1ccc(Cl)cc1 [Example 16, [(3S,4R)-4-(4-Chloro-phenyl)-1-(5′-methanesulfonyl-3,4,5,6-tetrahydro-2H-[1,2′]bipyridinyl-4-carbonyl)-pyrrolidin-3-yl]-ethyl-carbamic acid 4-fluoro-phenyl ester]",2 nM
2,"N#Cc1ccc(N2CCC(C(=O)N3C[C@@H](N(C(=O)Oc4ccc(F)cc4)C4CC4)[C@H](c4ccc(Cl)cc4)C3)CC2)nc1 [Example 29, [(3S,4R)-4-(4-Chloro-phenyl)-1-(5′-cyano-3,4,5,6-tetrahydro-2H-[1,2′]bipyridinyl-4-carbonyl)-pyrrolidin-3-yl]-cyclopropyl-carbamic acid 4-fluoro-phenyl ester]",12 nM
3,"N#Cc1ccc(N2CCC(C(=O)N3C[C@H](c4ccc(Cl)cc4)[C@@H](N(C(=O)Oc4ccc(F)cc4)C4CC4)C3)CC2)nc1 [Example 34, [(3R,4S)-4-(4-Chloro-phenyl)-1-(5′-cyano-3,4,5,6-tetrahydro-2H-[1,2′]bipyridinyl-4-carbonyl)-pyrrolidin-3-yl]-cyclopropyl-carbamic acid 4-fluoro-phenyl ester]",116 nM
4,"CC(C)N(C(=O)Oc1ccc(F)cc1)[C@H]1CN(C(=O)C2CCN(c3ccc(C#N)cn3)CC2)C[C@@H]1c1ccc(Cl)cc1 [Example 28, [(3R,4S)-4-(4-Chloro-phenyl)-1-(5′-cyano-3,4,5,6-tetrahydro-2H-[1,2′]bipyridinyl-4-carbonyl)-pyrrolidin-3-yl]-isopropyl-carbamic acid 4-fluoro-phenyl ester]",50 nM
5,"CCN(C(=O)Oc1ccc(F)cc1)[C@H]1CN(C(=O)C2CCN(c3ccc(S(C)(=O)=O)cn3)CC2)C[C@@H]1c1ccc(Cl)cc1 [Example 10, [(3R,4S)-4-(4-Chloro-phenyl)-1-(5′-methanesulfonyl-3,4,5,6-tetrahydro-2H-[1,2′]bipyridinyl-4-carbonyl)-pyrrolidin-3-yl]-ethyl-carbamic acid 4-fluoro-phenyl ester]",65 nM
6,"CCN(C(=O)Oc1ccc(F)cc1)[C@@H]1CN(C(=O)C2CCN(C(=O)c3ccc(C(F)(F)F)cn3)CC2)C[C@H]1c1ccc(Cl)cc1 [Example 101, {(3S,4R)-4-(4-Chloro-phenyl)-1-[1-(5-trifluoromethyl-pyridine-2-carbonyl)-piperidine-4-carbonyl]-pyrrolidin-3-yl}-ethyl-carbamic acid 4-fluoro-phenyl ester]",42.5 nM
7,"CC(=O)c1ccc(N2CCC(C(=O)N3C[C@@H](N(C(=O)Oc4ccc(F)cc4)C(C)C)[C@H](c4ccc(Cl)cc4)C3)CC2)nc1 [Example 24, [(3S,4R)-1-(5′-Acetyl-3,4,5,6-tetrahydro-2H-[1,2′]bipyridinyl-4-carbonyl)-4-(4-chloro-phenyl)-pyrrolidin-3-yl]-isopropyl-carbamic acid 4-fluoro-phenyl ester]",62 nM
8,"CCN(C(=O)Oc1ccc(F)cc1)[C@@H]1CN(C(=O)C2CCN(c3ccc(F)cn3)CC2)C[C@H]1c1ccc(F)c(Cl)c1 [Example 117, [(3S,4R)-4-(3-Chloro-4-fluoro-phenyl)-1-(5′-fluoro-3,4,5,6-tetrahydro-2H-[1,2′]bipyridinyl-4-carbonyl)-pyrrolidin-3-yl]-ethyl-carbamic acid 4-fluoro-phenyl ester]",3.3 nM
9,"CCN(C(=O)Oc1ccc(F)cc1)[C@@H]1CN(C(=O)C2CCC(=O)N(C(C)C)C2)C[C@H]1c1ccc(Cl)c(F)c1 (stereo partly drawn) [Example 105, [(3S,4R)-4-(4-Chloro-3-fluoro-phenyl)-1-(1-isopropyl-6-oxo-piperidine-3-carbonyl)-pyrrolidin-3-yl]-ethyl-carbamic acid 4-fluoro-phenyl ester]",31.2 nM
10,"CCN(C(=O)Oc1ccc(F)cc1)[C@@H]1CN(C(=O)C2CCN(c3ccc(C(C)=O)cn3)CC2)C[C@H]1c1ccc(Cl)c(F)c1 [Example 59, [(3S,4R)-1-(5′-Acetyl-3,4,5,6-tetrahydro-2H-[1,2′]bipyridinyl-4-carbonyl)-4-(4-chloro-3-fluoro-phenyl)-pyrrolidin-3-yl]-ethyl-carbamic acid 4-fluoro-phenyl ester]",0.5 nM
11,"CCN(C(=O)Oc1ccc(F)cc1)[C@@H]1CN(C(=O)C2CCN(c3ccc(C#N)nn3)CC2)C[C@H]1c1ccc(F)c(F)c1 [Example 58, [(3S,4R)-1-[1-(6-Cyano-pyridazin-3-yl)-piperidine-4-carbonyl]-4-(3,4-difluoro-phenyl)-pyrrolidin-3-yl]-ethyl-carbamic acid 4-fluoro-phenyl ester]",5 nM
12,"CCN(C(=O)Oc1ccc(F)cc1)[C@@H]1CN(C(=O)C2CCN(C(=O)C3CC(F)(F)C3)CC2)C[C@H]1c1ccc(Cl)cc1 [Example 90, {(3S,4R)-4-(4-Chloro-phenyl)-1-[1-(3,3-difluoro-cyclobutanecarbonyl)-piperidine-4-carbonyl]-pyrrolidin-3-yl}-ethyl-carbamic acid 4-fluoro-phenyl ester]",2.4 nM
13,"CCN(C(=O)Oc1ccc(F)cc1)[C@@H]1CN(C(=O)C2CCN(c3ccc(C(F)(F)F)cn3)CC2)C[C@H]1c1ccc(Cl)c(F)c1 [Example 42, [(3S,4R)-4-(4-Chloro-3-fluoro-phenyl)-1-(5′-trifluoromethyl-3,4,5,6-tetrahydro-2H-[1,2′]bipyridinyl-4-carbonyl)-pyrrolidin-3-yl]-ethyl-carbamic acid 4-fluoro-phenyl ester]",2 nM
14,"CCN(C(=O)Oc1ccc(F)cc1)[C@@H]1CN(C(=O)C2CCN(C(=O)C3CC3(F)F)CC2)C[C@H]1c1ccc(Cl)cc1 (stereo partly drawn) [Example 96, {(3S,4R)-4-(4-Chloro-phenyl)-1-[1-(2,2-difluoro-cyclopropanecarbonyl)-piperidine-4-carbonyl]-pyrrolidin-3-yl}-ethyl-carbamic acid 4-fluoro-phenyl ester]",3.4 nM
15,"CCN(C(=O)Oc1ccccc1F)[C@@H]1CN(C(=O)C2CCN(C(=O)C3(C#N)CC3)CC2)C[C@H]1c1ccc(Cl)cc1 [Example 85, {(3S,4R)-4-(4-Chloro-phenyl)-1-[1-(1-cyano-cyclopropanecarbonyl)-piperidine-4-carbonyl]-pyrrolidin-3-yl}-ethyl-carbamic acid 2-fluoro-phenyl ester]",23.3 nM
16,"CCN(C(=O)Oc1ccc(F)cc1)[C@@H]1CN(C(=O)C2CCN(c3ccc(F)cn3)CC2)C[C@H]1c1ccc(Cl)c(F)c1 [Example 46, [(3S,4R)-4-(4-Chloro-3-fluoro-phenyl)-1-(5′-fluoro-3,4,5,6-tetrahydro-2H-[1,2′]bipyridinyl-4-carbonyl)-pyrrolidin-3-yl]-ethyl-carbamic acid 4-fluoro-phenyl ester]",1 nM
17,"CCN(C(=O)Oc1ccc(F)cc1)[C@@H]1CN(C(=O)C2CCN(C(=O)C3CCC3)CC2)C[C@H]1c1ccc(Cl)c(F)c1 [Example 67, [(3S,4R)-4-(4-Chloro-3-fluoro-phenyl)-1-(1-cyclobutanecarbonyl-piperidine-4-carbonyl)-pyrrolidin-3-yl]-ethyl-carbamic acid 4-fluoro-phenyl ester]",2 nM
18,"CCN(C(=O)Oc1ccc(F)cc1)[C@@H]1CN(C(=O)C2CCN(C(=O)C3(C)COC3)CC2)C[C@H]1c1ccc(Cl)c(F)c1 [Example 65, {(3S,4R)-4-(4-Chloro-3-fluoro-phenyl)-1-[1-(3-methyl-oxetane-3-carbonyl)-piperidine-4-carbonyl]-pyrrolidin-3-yl}-ethyl-carbamic acid 4-fluoro-phenyl ester]",3 nM
19,"CC(C)N(C(=O)Oc1ccc(F)cc1)[C@@H]1CN(C(=O)C2CCN(c3cnc(C#N)cn3)CC2)C[C@H]1c1ccc(Cl)cc1 [Example 27, {(3S,4R)-4-(4-Chloro-phenyl)-1-[1-(5-cyano-pyrazin-2-yl)-piperidine-4-carbonyl]-pyrrolidin-3-yl}-isopropyl-carbamic acid 4-fluoro-phenyl ester]",47 nM
20,"CCN(C(=O)Oc1ccc(F)cc1)[C@@H]1CN(C(=O)C2CCN(C(=O)C3CC3(C)C)CC2)C[C@H]1c1ccc(Cl)cc1 (stereo partly drawn) [Example 100, {(3S,4R)-4-(4-Chloro-phenyl)-1-[1-(2,2-dimethyl-cyclopropanecarbonyl)-piperidine-4-carbonyl]-pyrrolidin-3-yl}-ethyl-carbamic acid 4-fluoro-phenyl ester]",3.6 nM

# Same assay, conditions: read-out: Data Ki (hNK-3 receptor affinity)
row,Structure (SMILES),Ki
1,"CCN(C(=O)Oc1ccc(F)cc1)[C@@H]1CN(C(=O)C2CCN(c3ccc(Cl)cn3)CC2)C[C@H]1c1ccc(F)cc1 [Example 36, [(3S,4R)-1-(5′-Chloro-3,4,5,6-tetrahydro-2H-[1,2′]bipyridinyl-4-carbonyl)-4-(4-fluoro-phenyl)-pyrrolidin-3-yl]-ethyl-carbamic acid 4-fluoro-phenyl ester]",10 nM
